In US7056947B2, “Aza-peptide epoxides” (Georgia Tech Research Corp., priority 2002, dated 2006):

What follows are compounds tested against T1, caspase-3 (Homo sapiens, UniProt P42574) (assay: Caspase-3 progress curve assay). Conditions: substrate Z-DEVD-AFC; NI = no inhibition.
T1 construct: made in house; host or cells: E. coli
T1 sequence (P42574 29-175 limits assumed): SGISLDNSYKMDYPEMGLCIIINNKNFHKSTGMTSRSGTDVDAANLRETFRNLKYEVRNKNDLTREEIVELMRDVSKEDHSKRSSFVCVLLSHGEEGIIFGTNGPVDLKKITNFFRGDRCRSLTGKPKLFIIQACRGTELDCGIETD
T1 sequence (P42574 176-277 limits assumed): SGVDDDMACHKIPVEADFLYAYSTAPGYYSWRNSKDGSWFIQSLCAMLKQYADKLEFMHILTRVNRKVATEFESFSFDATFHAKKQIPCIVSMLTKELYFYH
Type: biochemical
Experimental: Caspase-3, -6, and -8. Caspase-3, -6 and -8 were expressed in E. coli and purified according to methods previously described by Stennicke and Salvesen. Assays using the fluorogenic substrate Z-DEVD-AFC (λex=400 nm, λem=505 nm) were carried out on a Molecular Devices fMax fluorescence microplate reader. Inhibition rates and equilibria were determined by the progress curve method. The standard 100 μL reaction was started by adding enzyme to a mixture of substrate (final concentration of Z-DEVD-AFC 100 μM) and various amounts of inhibitor in buffer (50 mM Hepes, 100 mM NaCl, 0.1% (w/v) CHAPS, sucrose 10% (w/v), and 10 mM DTT, at pH 7.4). The caspases were pre-activated for 10 min at 37° C. in the presence of 10 mM DTT.

| k2 caspase-3 | Compound |
| --- | --- |
| 50500 ± 2075 M⁻¹ s⁻¹ | CCOC(=O)[C@H]1O[C@@H]1C(=O)N(CC(=O)O)NC(=O)[C@@H](NC(=O)[C@H](CCC(=O)O)NC(=O)OCc1ccccc1)C(C)C [24c, (2S,3S)-3-(N^2-(N-Benzyloxycarbonylglutamylvalyl)-N^1-carboxymethylhydrazinocarbonyl)oxirane-2-carboxylic Acid Ethyl Ester] |
| 464420 ± 186300 M⁻¹ s⁻¹ | CCOC(=O)[C@@H]1O[C@H]1C(=O)N(CC(=O)O)NC(=O)[C@@H](NC(=O)[C@H](CCC(=O)O)NC(=O)[C@H](CC(=O)O)NC(=O)OCc1ccccc1)C(C)C [25c (R,R), (2R,3R)-3-(N^2-(N-Benzyloxycarbonylaspartylglutamylvalyl)-N^1-carboxymethylhydrazinocarbonyl)oxirane-2-carboxylic Acid Ethyl Ester] |
| 145 ± 18 M⁻¹ s⁻¹ | CC(C)[C@H](NC(=O)OCc1ccccc1)C(=O)NN(CC(=O)O)C(=O)[C@@H]1O[C@H]1c1ccc(Cl)cc1 (relative stereo) [22b, trans-2-(N^2-(N-Benzyloxycarbonylvalyl)-N^1-carboxymethylhydrazinocarbonyl)-3-(4-chlorophenyl)oxirane] |
| 1110 ± 340 M⁻¹ s⁻¹ | CC(C)C(NC(=O)OCc1ccccc1)C(=O)NN(CC(=O)O)C(=O)C1OC1C(=O)O [22n, Cbz-Val-AAsp-(S,S)-EP-COOH] |
| 87 ± 4 M⁻¹ s⁻¹ | CC(C)[C@H](NC(=O)CCc1ccccc1)C(=O)N[C@@H](C)C(=O)NN(CC(=O)O)C(=O)[C@H]1O[C@@H]1C(=O)NC(Cc1ccc(O)cc1)C(N)=O (stereo partly drawn) [23m, (2S,3S)-2-(2-Amido-phenyl(4-hydroxy)ethylcarbamoyl)-3-(N^2-(3-phenylpropanoylvalylalanyl)-N^1-carboxymethylhydrazinocarbonyl)oxirane] |
| 470 ± 77 M⁻¹ s⁻¹ | (2R,3R)-2-(1-Amido-phenethylcarbamoyl)-3-(N^2-(N-benzyloxycarbonylaspartylglutamylvalyl)-N^1-carboxymethylhydrazinocarbonyl)oxirane [24l] |
| 1910 ± 370 M⁻¹ s⁻¹ | CCNC(=O)[C@H]1O[C@@H]1C(=O)N(CC(=O)O)NC(=O)[C@H](C)NC(=O)[C@@H](NC(=O)CCc1ccccc1)C(C)C [23f, (2S,3S)-2-(2-Ethylcarbamoyl)-3-(N^2-(3-phenylpropanoylvalylalanyl)-N^1-carboxymethylhydrazinocarbonyl)oxirane] |
| 3650 ± 570 M⁻¹ s⁻¹ | CCOC(=O)C1OC1C(=O)N(CC(=O)O)NC(=O)C(NC(=O)OCc1ccccc1)C(C)C [22c, Cbz-Val-AAsp-(S,S)-EP-COOEt] |
| 2550 ± 25 M⁻¹ s⁻¹ | CC(C)C[C@H](NC(=O)OCc1ccccc1)C(=O)N[C@@H](CCC(=O)O)C(=O)N[C@H](C(=O)NN(CC(=O)O)C(=O)[C@H]1O[C@@H]1C(=O)NCCc1ccccc1)[C@@H](C)O [26h, (2S,3S)-2-(2-Phenethylcarbamoyl)-3-(N^2-(N -benzyloxycarbonylleucylglutamylthreonyl)-N^1-carboxymethylhydrazinocarbonyl)oxirane] |
| 1280 ± 77 M⁻¹ s⁻¹ | CC(C)C[C@H](NC(=O)OCc1ccccc1)C(=O)N[C@@H](CCC(=O)O)C(=O)N[C@H](C(=O)NN(CC(=O)O)C(=O)[C@H]1O[C@@H]1C(=O)NC(C)C(=O)NCc1ccccc1)[C@@H](C)O (stereo partly drawn) [26j, (2S,3S)-2-(1-Benzylcarbamoyl-ethylcarbamoyl)-3-(N^2-(N-benzyloxycarbonylleucylglutamylthreonyl)-N^1-carboxymethylhydrazinocarbonyl)oxirane] |
| 310 ± 5 M⁻¹ s⁻¹ | CC(C)C(NC(=O)OCc1ccccc1)C(=O)NN(CC(=O)O)C(=O)C1OC1CCc1ccccc1 (stereo not drawn) [22a, Cbz-Val-AAsp-(trans)-EP-CH2CH2Ph] |
| 3050 M⁻¹ s⁻¹ | CC[C@H](C)[C@H](NC(=O)OCc1ccccc1)C(=O)N[C@@H](CCC(=O)O)C(=O)N[C@H](C(=O)NN(CC(=O)O)C(=O)[C@H]1O[C@@H]1C(=O)NC(C)C(=O)NCc1ccccc1)[C@@H](C)O (stereo partly drawn) [27j, (2S,3S)-2-(1-Benzylcarbamoyl-ethylcarbamoyl)-3-(N^2-(N-benzyloxycarbonylisoleucylglutamylthreonyl)-N^1-carboxymethylhydrazinocarbonyl)oxirane] |

The compounds below were run against T2, caspase-1 (Homo sapiens, UniProt P29466, D381E) (assay: Caspase-1 progress curve assay). Conditions: D381E variant, substrate Ac-YVAD-AMC, 30° C.
T2 construct: His tag (N); made in house; host or cells: E. coli
T2 sequence (P29466 120-297 limits assumed): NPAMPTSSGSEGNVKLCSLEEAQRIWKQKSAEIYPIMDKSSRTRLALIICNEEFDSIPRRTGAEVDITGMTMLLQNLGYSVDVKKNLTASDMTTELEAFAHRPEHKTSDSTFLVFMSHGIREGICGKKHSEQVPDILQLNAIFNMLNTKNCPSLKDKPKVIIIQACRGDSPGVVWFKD
T2 sequence (P29466 317-404 D381E limits assumed): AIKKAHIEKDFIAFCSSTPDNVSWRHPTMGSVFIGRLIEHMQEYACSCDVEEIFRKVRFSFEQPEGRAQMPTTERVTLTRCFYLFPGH
Type: biochemical
Text: Caspase-1. The preparation of the autolytically stable caspase-1 variant used in these studies has been described previously. Briefly, the variant contains a mutation (D381E) which renders it resistant to autolytic inactivation, but has no detectable affect on enzyme activity as compared to the naturally occurring enzyme. The enzyme variant was expressed in E. coli, purified first by immobilized metal chromatography via the N-terminal N-His tag, treated with excess oxidized glutathione to stabilize the reactive thiolate, and then re-purified by size-exclusion chromatography.
Inhibition data was measured using the progress curve assay method. Serial dilutions of each compound were prepared using an initial 8-fold dilution of a DMSO stock into HGE (100 mM HEPES,20% glycerol v/v, 0.5 mM EDTA), followed by seven serial two-fold dilutions into HGE and 12.5% DMSO, thus maintaining constant DMSO through the dilution series. Ten μL of diluted stocks or of vehicle (HGE and 12.5% DMSO) were placed in triplicate onto a 96-well microtiter plate, allowing several compounds to be tested on each plate. The plate was covered to minimize evaporation, and the plate was pre-warmed to 30° C. for 20 minutes. Enzyme was diluted into 10.0 mL of assay buffer (HGE, 5 mM DTT, plus 15 μM Ac-YVAD-AMC, 2 nM approximate final enzyme concentration), and this activated reaction mixture was added to the plate at 90 μL/well. Progress of substrate hydrolysis was monitored for 900 s in a LabSystems (Needham, Mass.) Fluoroskan Ascent fluorescent plate-reader using 385 and 460 nm excitation and emission filters, respectively, and a photomultiplier gain setting of 10. Triplicate curves were averaged and fit by nonlinear regression to the equation for irreversible inactivation shown below.
[formula] where F0 was routinely fixed to zero, since fluorescence values were always adjusted to an origin of 0. The second order rate constant kon (M^−1s^−1) was obtained from the slopes by linear regression, and errors represent the standard deviation of the regression slope.

| k2 caspase-1 | Compound |
| --- | --- |
| 58500 M⁻¹ s⁻¹ | CCOC(=O)[C@H]1O[C@@H]1C(=O)N(CC(=O)O)NC(=O)[C@@H](NC(=O)[C@H](CCC(=O)O)NC(=O)OCc1ccccc1)C(C)C [24c, (2S,3S)-3-(N^2-(N-Benzyloxycarbonylglutamylvalyl)-N^1-carboxymethylhydrazinocarbonyl)oxirane-2-carboxylic Acid Ethyl Ester] |
| 4320 ± 830 M⁻¹ s⁻¹ | CCOC(=O)[C@@H]1O[C@H]1C(=O)N(CC(=O)O)NC(=O)[C@@H](NC(=O)[C@H](CCC(=O)O)NC(=O)[C@H](CC(=O)O)NC(=O)OCc1ccccc1)C(C)C [25c (R,R), (2R,3R)-3-(N^2-(N-Benzyloxycarbonylaspartylglutamylvalyl)-N^1-carboxymethylhydrazinocarbonyl)oxirane-2-carboxylic Acid Ethyl Ester] |
| 330 M⁻¹ s⁻¹ | CC(C)[C@H](NC(=O)CCc1ccccc1)C(=O)N[C@@H](C)C(=O)NN(CC(=O)O)C(=O)[C@@H]1O[C@H]1C(=O)NC(Cc1ccccc1)C(N)=O (stereo partly drawn) [23l (R,R), (2R,3R)-2-(1-Amido-phenethylcarbamoyl)-3-(N^2-(3-phenylpropanoylvalylalanyl)-N^1-carboxymethylhydrazinocarbonyl)oxirane] |
| 950 ± 51 M⁻¹ s⁻¹ | CC(C)[C@H](NC(=O)CCc1ccccc1)C(=O)N[C@@H](C)C(=O)NN(CC(=O)O)C(=O)[C@@H]1O[C@H]1C(=O)NCCc1ccccc1 [23h (R,R), (2R,3R)-2-(2-Phenethylcarbamoyl)-3-(N^2-(3-phenylpropanoylvalylalanyl)-N^1-carboxymethylhydrazinocarbonyl)oxirane] |
| 3245 ± 2330 M⁻¹ s⁻¹ | CC(C)[C@H](NC(=O)CCc1ccccc1)C(=O)N[C@@H](C)C(=O)NN(CC(=O)O)C(=O)[C@H]1O[C@@H]1C(=O)NC(Cc1ccc(O)cc1)C(N)=O (stereo partly drawn) [23m, (2S,3S)-2-(2-Amido-phenyl(4-hydroxy)ethylcarbamoyl)-3-(N^2-(3-phenylpropanoylvalylalanyl)-N^1-carboxymethylhydrazinocarbonyl)oxirane] |
| 1040 ± 455 M⁻¹ s⁻¹ | (2R,3R)-2-(1-Amido-phenethylcarbamoyl)-3-(N^2-(N-benzyloxycarbonylaspartylglutamylvalyl)-N^1-carboxymethylhydrazinocarbonyl)oxirane [24l] |
| 268 ± 75 M⁻¹ s⁻¹ | CC(NC(=O)[C@@H]1O[C@H]1C(=O)N(CC(=O)O)NC(=O)[C@H](C)NC(=O)[C@@H](NC(=O)CCc1ccccc1)C(C)C)C(=O)NCc1ccccc1 (stereo partly drawn) [23j (R,R), (2R,3R)-2-(1-Benzylcarbamoylethylcarbamoyl)-3-(N^2-(3-phenylpropanoylvalylalanyl)-N^1-carboxymethylhydrazinocarbonyl)oxirane] |
| 6290 ± 1524 M⁻¹ s⁻¹ | CCOC(=O)[C@@H]1O[C@H]1C(=O)N(CC(=O)O)NC(=O)[C@H](C)NC(=O)[C@@H](NC(=O)CCc1ccccc1)C(C)C [23c (R,R)] |
| 1860 ± 302 M⁻¹ s⁻¹ | CC(C)[C@H](NC(=O)CCc1ccccc1)C(=O)N[C@@H](C)C(=O)NN(CC(=O)O)C(=O)[C@@H]1O[C@H]1C(=O)OCc1ccccc1 [23d (R,R), (2R,3R)-3-(N^2-(3-Phenylpropanoylvalylalanyl)-N^1-carboxymethylhydrazinocarbonyl)oxirane-2-carboxylic Acid Benzyl Ester] |
| 400 ± 19 M⁻¹ s⁻¹ | CC(C)[C@H](NC(=O)CCc1ccccc1)C(=O)N[C@@H](C)C(=O)NN(CC(=O)O)C(=O)[C@@H]1O[C@H]1C(=O)NCC(O)c1ccccc1 (stereo partly drawn) [23i (R,R), (2R,3R)-2-(2-Hydroxy-2-phenylethylcarbamoyl)-3-(N^2-(3-phenylpropanoylvalylalanyl)-N^1-carboxymethylhydrazinocarbonyl)oxirane] |
| 1630 ± 522 M⁻¹ s⁻¹ | CC(NC(=O)C(NC(=O)CCc1ccccc1)C(C)C)C(=O)NN(CC(=O)O)C(=O)[C@@H]1O[C@H]1C(=O)NCc1ccccc1 (stereo partly drawn) [23g (R,R), (2R,3R)-2-(2-Benzylcarbamoyl)-3-(N^2-(3-phenylpropanoylvalylalanyl)-N^1-carboxymethylhydrazinocarbonyl)oxirane] |
| 300 ± 144 M⁻¹ s⁻¹ | CC(C)[C@H](NC(=O)CCc1ccccc1)C(=O)N[C@@H](C)C(=O)NN(CC(=O)O)C(=O)[C@@H]1O[C@H]1CCc1ccccc1 (relative stereo) [23a, trans-3-(N^2-(N-3-Phenylpropanoylvalylalanyl)-N^1-carboxylmethylhydrazinocarbonyl)-2-(2-phenylethyl)oxirane] |
